Measured values taken from ChEMBL document CHEMBL1909046, “DrugMatrix in vitro pharmacology data”.

Tested on: not listed separately
Assay: DRUGMATRIX: GABAA, Chloride Channel, TBOB radioligand binding (ligand: [3H] TBOB)
Assay type: cell membranes, Rattus norvegicus, Wistar, Cerebral cortex, Membrane
Settings: Not Active = under 50% inhibition at 10 µM

Compound | IC50 | Ki
NCCCNCCSP(=O)(O)O [AMIFOSTINE] | Not Active | Not Active
CN(C)CCC=C1c2ccccc2CCc2ccccc21 [AMITRIPTYLINE] | Not Active | Not Active
CC(=O)Oc1ccccc1C(=O)O [ASPIRIN] | Not Active | Not Active
CC(C)c1c(C(=O)Nc2ccccc2)c(-c2ccccc2)c(-c2ccc(F)cc2)n1CC[C@@H](O)C[C@@H](O)CC(=O)O [ATORVASTATIN] | Not Active | Not Active
CC(=O)OC[C@H]1O[C@@H](n2ncc(=O)[nH]c2=O)[C@H](OC(C)=O)[C@@H]1OC(C)=O [AZARIBINE] | Not Active | Not Active
C[C@H]1[C@H](NC(=O)/C(=N\OC(C)(C)C(=O)O)c2csc(N)n2)C(=O)N1S(=O)(=O)O [AZTREONAM] | Not Active | Not Active
O=C(O)CCNC(=O)c1ccc(/N=N/c2ccc(O)c(C(=O)O)c2)cc1 [BALSALAZIDE] | Not Active | Not Active

Molecular target: Melanocortin receptor 3 (Homo sapiens, UniProt P41968); further: in other assays of this panel Not Active means under 50% inhibition at 10 µM
Sequence (P41968 whole entry): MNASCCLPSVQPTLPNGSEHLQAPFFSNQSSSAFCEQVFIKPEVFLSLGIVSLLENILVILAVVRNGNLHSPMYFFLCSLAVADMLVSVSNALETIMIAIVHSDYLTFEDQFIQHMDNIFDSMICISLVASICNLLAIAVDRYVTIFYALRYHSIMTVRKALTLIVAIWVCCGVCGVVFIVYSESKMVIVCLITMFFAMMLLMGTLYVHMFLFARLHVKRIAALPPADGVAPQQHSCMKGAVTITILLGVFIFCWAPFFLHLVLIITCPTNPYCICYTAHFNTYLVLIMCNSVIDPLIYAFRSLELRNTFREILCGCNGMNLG
Assay: not given
Assay type: cell membranes, Membrane
Settings: hek293

Compound | IC50
NCCCNCCSP(=O)(O)O [AMIFOSTINE] | Not Active
CN(C)CCC=C1c2ccccc2CCc2ccccc21 [AMITRIPTYLINE] | Not Active
CC(=O)Oc1ccccc1C(=O)O [ASPIRIN] | Not Active
CC(C)c1c(C(=O)Nc2ccccc2)c(-c2ccccc2)c(-c2ccc(F)cc2)n1CC[C@@H](O)C[C@@H](O)CC(=O)O [ATORVASTATIN] | Not Active
CC(=O)OC[C@H]1O[C@@H](n2ncc(=O)[nH]c2=O)[C@H](OC(C)=O)[C@@H]1OC(C)=O [AZARIBINE] | Not Active
C[C@H]1[C@H](NC(=O)/C(=N\OC(C)(C)C(=O)O)c2csc(N)n2)C(=O)N1S(=O)(=O)O [AZTREONAM] | Not Active
O=C(O)CCNC(=O)c1ccc(/N=N/c2ccc(O)c(C(=O)O)c2)cc1 [BALSALAZIDE] | Not Active

Tested on: not listed separately
Assay: DRUGMATRIX: GABAA, Muscimol, Central radioligand binding (ligand: [3H] Muscimol)
Assay type: cell membranes, Rattus norvegicus, Wistar, Brain, Membrane
Settings: Not Active = under 50% inhibition at 10 µM

Compound | IC50 | Ki
NCCCNCCSP(=O)(O)O [AMIFOSTINE] | Not Active | Not Active
CN(C)CCC=C1c2ccccc2CCc2ccccc21 [AMITRIPTYLINE] | Not Active | Not Active
CC(=O)Oc1ccccc1C(=O)O [ASPIRIN] | Not Active | Not Active
CC(C)c1c(C(=O)Nc2ccccc2)c(-c2ccccc2)c(-c2ccc(F)cc2)n1CC[C@@H](O)C[C@@H](O)CC(=O)O [ATORVASTATIN] | Not Active | Not Active
CC(=O)OC[C@H]1O[C@@H](n2ncc(=O)[nH]c2=O)[C@H](OC(C)=O)[C@@H]1OC(C)=O [AZARIBINE] | Not Active | Not Active
C[C@H]1[C@H](NC(=O)/C(=N\OC(C)(C)C(=O)O)c2csc(N)n2)C(=O)N1S(=O)(=O)O [AZTREONAM] | Not Active | Not Active
O=C(O)CCNC(=O)c1ccc(/N=N/c2ccc(O)c(C(=O)O)c2)cc1 [BALSALAZIDE] | Not Active | Not Active

Molecular target: Adenosine receptor A2a (Homo sapiens, UniProt P29274)
Sequence (P29274 whole entry): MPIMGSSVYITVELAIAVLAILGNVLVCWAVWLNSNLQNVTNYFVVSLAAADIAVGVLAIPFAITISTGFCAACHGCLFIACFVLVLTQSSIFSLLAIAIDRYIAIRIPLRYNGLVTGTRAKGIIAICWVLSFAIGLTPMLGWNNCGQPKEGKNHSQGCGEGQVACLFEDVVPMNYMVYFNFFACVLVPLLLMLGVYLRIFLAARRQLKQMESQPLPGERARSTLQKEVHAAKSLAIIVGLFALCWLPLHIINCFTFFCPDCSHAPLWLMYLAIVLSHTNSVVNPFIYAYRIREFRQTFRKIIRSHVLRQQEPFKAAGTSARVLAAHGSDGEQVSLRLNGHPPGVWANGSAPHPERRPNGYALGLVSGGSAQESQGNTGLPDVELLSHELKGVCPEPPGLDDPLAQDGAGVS
Assay: DRUGMATRIX: Adenosine A2A radioligand binding (ligand: […])
Assay type: cell membranes, HEK293, Membrane
Settings: hek293; Not Active = under 50% inhibition at 10 µM

Compound | IC50
NCCCNCCSP(=O)(O)O [AMIFOSTINE] | Not Active
CN(C)CCC=C1c2ccccc2CCc2ccccc21 [AMITRIPTYLINE] | Not Active
CC(=O)Oc1ccccc1C(=O)O [ASPIRIN] | Not Active
CC(C)c1c(C(=O)Nc2ccccc2)c(-c2ccccc2)c(-c2ccc(F)cc2)n1CC[C@@H](O)C[C@@H](O)CC(=O)O [ATORVASTATIN] | Not Active
CC(=O)OC[C@H]1O[C@@H](n2ncc(=O)[nH]c2=O)[C@H](OC(C)=O)[C@@H]1OC(C)=O [AZARIBINE] | Not Active
C[C@H]1[C@H](NC(=O)/C(=N\OC(C)(C)C(=O)O)c2csc(N)n2)C(=O)N1S(=O)(=O)O [AZTREONAM] | Not Active
O=C(O)CCNC(=O)c1ccc(/N=N/c2ccc(O)c(C(=O)O)c2)cc1 [BALSALAZIDE] | Not Active

Molecular target: T1, Polyunsaturated fatty acid lipoxygenase ALOX15 (Oryctolagus cuniculus, UniProt P12530);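 further: inhibition of 15-lipoxygenase enzyme activity measured with linoleic acid as the substrate; in other assays of this panel Not Active means under 50% inhibition at 10 µM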
T1 sequence (P12530 whole entry): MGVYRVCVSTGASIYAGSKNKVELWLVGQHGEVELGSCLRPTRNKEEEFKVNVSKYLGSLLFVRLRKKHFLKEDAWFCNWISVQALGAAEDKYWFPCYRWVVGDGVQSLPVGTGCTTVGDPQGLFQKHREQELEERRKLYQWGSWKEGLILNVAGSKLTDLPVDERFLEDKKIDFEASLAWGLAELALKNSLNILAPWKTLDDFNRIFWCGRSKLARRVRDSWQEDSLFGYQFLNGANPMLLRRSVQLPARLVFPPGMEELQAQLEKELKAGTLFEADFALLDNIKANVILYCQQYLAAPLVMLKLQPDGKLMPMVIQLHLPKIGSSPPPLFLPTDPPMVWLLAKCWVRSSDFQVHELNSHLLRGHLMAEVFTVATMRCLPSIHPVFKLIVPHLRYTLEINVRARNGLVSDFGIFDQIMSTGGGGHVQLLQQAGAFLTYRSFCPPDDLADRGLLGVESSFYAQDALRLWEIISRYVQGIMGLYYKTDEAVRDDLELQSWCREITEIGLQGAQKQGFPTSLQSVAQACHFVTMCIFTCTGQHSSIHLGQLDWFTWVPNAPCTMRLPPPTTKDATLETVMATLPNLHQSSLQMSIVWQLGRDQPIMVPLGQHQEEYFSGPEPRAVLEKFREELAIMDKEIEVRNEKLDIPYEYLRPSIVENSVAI
Assay: biochemical
Assay type: tissue-based, Reticulocytes
Settings: reticulocytes

Compound | IC50
NCCCNCCSP(=O)(O)O [AMIFOSTINE] | Not Active
CN(C)CCC=C1c2ccccc2CCc2ccccc21 [AMITRIPTYLINE] | Not Active
CC(=O)Oc1ccccc1C(=O)O [ASPIRIN] | Not Active
CC(C)c1c(C(=O)Nc2ccccc2)c(-c2ccccc2)c(-c2ccc(F)cc2)n1CC[C@@H](O)C[C@@H](O)CC(=O)O [ATORVASTATIN] | Not Active
CC(=O)OC[C@H]1O[C@@H](n2ncc(=O)[nH]c2=O)[C@H](OC(C)=O)[C@@H]1OC(C)=O [AZARIBINE] | Not Active
C[C@H]1[C@H](NC(=O)/C(=N\OC(C)(C)C(=O)O)c2csc(N)n2)C(=O)N1S(=O)(=O)O [AZTREONAM] | Not Active
O=C(O)CCNC(=O)c1ccc(/N=N/c2ccc(O)c(C(=O)O)c2)cc1 [BALSALAZIDE] | Not Active

Tested on: not listed separately
Assay: DRUGMATRIX: Phosphodiesterase PDE4 enzyme inhibition (substrate: [3H]cAMP + cAMP)
Settings: u-937; Not Active = under 50% inhibition at 10 µM

Compound | IC50 | Ki
NCCCNCCSP(=O)(O)O [AMIFOSTINE] | Not Active | Not Active
CN(C)CCC=C1c2ccccc2CCc2ccccc21 [AMITRIPTYLINE] | Not Active | Not Active
CC(=O)Oc1ccccc1C(=O)O [ASPIRIN] | Not Active | Not Active
CC(C)c1c(C(=O)Nc2ccccc2)c(-c2ccccc2)c(-c2ccc(F)cc2)n1CC[C@@H](O)C[C@@H](O)CC(=O)O [ATORVASTATIN] | Not Active | Not Active
CC(=O)OC[C@H]1O[C@@H](n2ncc(=O)[nH]c2=O)[C@H](OC(C)=O)[C@@H]1OC(C)=O [AZARIBINE] | Not Active | Not Active
C[C@H]1[C@H](NC(=O)/C(=N\OC(C)(C)C(=O)O)c2csc(N)n2)C(=O)N1S(=O)(=O)O [AZTREONAM] | Not Active | Not Active
O=C(O)CCNC(=O)c1ccc(/N=N/c2ccc(O)c(C(=O)O)c2)cc1 [BALSALAZIDE] | Not Active | Not Active
